Target: T1, F508del (Homo sapiens, UniProt P13569, DEL508-508)
T1 construct: expressed in transfected cells
Assay: Protocol 1: membrane potential optical assay (FLIPR III, voltage sensing dye), identification of potentiator compounds
Format: cell-based
Conditions: Table 3, compounds of Table 1
Procedure, shortened: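 NIH3T3 F508del cells, 27° C × 24 hrs; compound/DMSO pretreat → redistribution dye load → single forskolin addition with Cl⁻ gradient (gluconate-substituted bath, HEPES pH 7.4). FLIPR III membrane-potential fluorescence read.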

T1 sequence (P13569 with tags, fused parts or gaps DEL508-508): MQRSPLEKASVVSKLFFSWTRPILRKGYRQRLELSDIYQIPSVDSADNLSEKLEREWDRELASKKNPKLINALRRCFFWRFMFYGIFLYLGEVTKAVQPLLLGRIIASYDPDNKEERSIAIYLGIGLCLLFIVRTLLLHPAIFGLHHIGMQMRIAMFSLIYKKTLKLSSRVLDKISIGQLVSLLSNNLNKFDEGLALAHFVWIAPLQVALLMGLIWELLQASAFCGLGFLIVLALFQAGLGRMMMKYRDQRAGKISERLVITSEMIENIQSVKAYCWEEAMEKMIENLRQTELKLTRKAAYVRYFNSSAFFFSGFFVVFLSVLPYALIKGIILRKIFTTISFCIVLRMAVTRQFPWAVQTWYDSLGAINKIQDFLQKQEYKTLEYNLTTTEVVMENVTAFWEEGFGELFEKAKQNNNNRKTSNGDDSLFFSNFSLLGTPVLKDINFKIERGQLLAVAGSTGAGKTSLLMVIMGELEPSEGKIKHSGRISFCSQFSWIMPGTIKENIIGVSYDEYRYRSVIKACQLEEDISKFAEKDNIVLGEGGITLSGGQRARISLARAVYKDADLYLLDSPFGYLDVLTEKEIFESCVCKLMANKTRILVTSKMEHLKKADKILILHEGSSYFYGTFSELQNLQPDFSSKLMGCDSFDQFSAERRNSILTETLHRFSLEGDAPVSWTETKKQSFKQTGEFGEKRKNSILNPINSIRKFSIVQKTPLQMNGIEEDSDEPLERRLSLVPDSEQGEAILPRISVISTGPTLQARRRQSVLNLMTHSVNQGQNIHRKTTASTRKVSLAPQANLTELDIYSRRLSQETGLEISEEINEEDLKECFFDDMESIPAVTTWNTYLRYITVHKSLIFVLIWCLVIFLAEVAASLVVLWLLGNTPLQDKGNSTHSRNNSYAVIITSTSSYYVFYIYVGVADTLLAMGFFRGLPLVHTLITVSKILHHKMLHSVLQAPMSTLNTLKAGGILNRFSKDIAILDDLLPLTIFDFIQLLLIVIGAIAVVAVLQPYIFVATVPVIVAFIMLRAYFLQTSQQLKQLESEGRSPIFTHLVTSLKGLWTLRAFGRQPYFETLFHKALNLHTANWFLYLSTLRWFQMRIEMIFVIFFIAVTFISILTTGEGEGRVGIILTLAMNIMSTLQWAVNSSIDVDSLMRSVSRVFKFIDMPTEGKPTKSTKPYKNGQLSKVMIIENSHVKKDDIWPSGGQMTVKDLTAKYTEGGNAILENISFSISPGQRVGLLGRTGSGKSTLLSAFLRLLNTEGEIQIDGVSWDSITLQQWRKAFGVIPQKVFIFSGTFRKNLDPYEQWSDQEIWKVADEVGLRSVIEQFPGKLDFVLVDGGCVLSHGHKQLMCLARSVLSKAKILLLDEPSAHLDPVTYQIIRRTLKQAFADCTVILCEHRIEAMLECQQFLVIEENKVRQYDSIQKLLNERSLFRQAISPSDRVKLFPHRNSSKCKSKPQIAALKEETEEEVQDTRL

| EC30 | SMILES |
| --- | --- |
| + (“+” means greater than 10 uM) | CC1CCN(c2nc3c(cc2C(=O)NS(=O)(=O)c2ccc[nH]c2=O)CCCC3(C)C)CC1 [Compound 1195, 8,8-dimethyl-2-(4-methyl-1-piperidyl)-N-[(2-oxo-1H-pyridin-3-yl)sulfonyl]-6,7-dihydro-5H-quinoline-3-carboxamide] |
| +++ (“+++” means <3 uM) | CCCCCc1ccc(C(=O)NS(=O)(=O)c2cccc(N)n2)c(Oc2c(C)cc(C)cc2C)n1 [Compound 862, N-[(6-amino-2-pyridyl)sulfonyl]-6-pentyl-2-(2,4,6-trimethylphenoxy)pyridine-3-carboxamide] |
| ++ (“++” means between 3 uM and 10 uM) | Cc1ccccc1Nc1cccc(S(=O)(=O)NC(=O)c2cccnc2N2CC(C)CC2(C)C)n1 (stereo not shown) [Compound 1898, N—[[6-(2-methylanilino)-2-pyridyl]sulfonyl]-2-(2,2,4-trimethylpyrrolidin-1-yl)pyridine-3-carboxamide] |
| +++ (“+++” means <3 uM) | COc1cc(C)cc(Oc2cccc(S(=O)(=O)NC(=O)c3cccnc3N3CC(C)CC3(C)C)n2)c1 (stereo not shown) [Compound 1719, N—[[6-(3-methoxy-5-methyl-phenoxy)-2-pyridyl]sulfonyl]-2-(2,2,4-trimethylpyrrolidin-1-yl)pyridine-3-carboxamide] |
| +++ (“+++” means <3 uM) | Cc1ccc(F)c(-c2ccc(C(=O)NS(=O)(=O)c3ccc[nH]c3=O)c(N3C[C@@H](C)CC3(C)C)n2)c1 [Compound 1946, 6-(2-fluoro-5-methyl-phenyl)-N-[(2-oxo-1H-pyridin-3-yl)sulfonyl]-2-[(4S)-2,2,4-trimethylpyrrolidin-1-yl]pyridine-3-carboxamide] |
| +++ (“+++” means <3 uM) | Cc1cc(C)c(Oc2nc(C3=CCCCC3)ccc2C(=O)NS(=O)(=O)c2ccc[nH]c2=O)c(C)c1 [Compound 882, 6-(cyclohexen-1-yl)-N-[(2-oxo-1H-pyridin-3-yl)sulfonyl]-2-(2,4,6-trimethylphenoxy)pyridine-3-carboxamide] |
| +++ (“+++” means <3 uM) | CC(C)Oc1ccc(-c2ccc(C(=O)NS(=O)(=O)c3cccc(N)n3)c(N3CCCC(C4CC4)C3)n2)cn1 (stereo not shown) [Compound 1132, N-[(6-amino-2-pyridyl)sulfonyl]-2-(3-cyclopropyl-1-piperidyl)-6-(6-isopropoxy-3-pyridyl)pyridine-3-carboxamide] |
| +++ (“+++” means <3 uM) | COc1cc(OC)cc(-c2ccc(C(=O)NS(=O)(=O)c3cccnc3N)c(N3C[C@@H](C)CC3(C)C)n2)c1 [Compound 1825, N-[(2-amino-3-pyridyl)sulfonyl]-6-(3,5-dimethoxyphenyl)-2-[(4S)-2,2,4-trimethylpyrrolidin-1-yl]pyridine-3-carboxamide] |
| ++ (“++” means between 3 uM and 10 uM) | Cc1cc(C)c(Oc2nc(-c3ccc(CN4CCOCC4)cc3)ccc2C(=O)NS(=O)(=O)c2cccc(N)n2)c(C)c1 [Compound 810, N-[(6-amino-2-pyridyl)sulfonyl]-6-[4-(morpholinomethyl)phenyl]-2-(2,4,6-trimethylphenoxy)pyridine-3-carboxamide] |
| +++ (“+++” means <3 uM) | COc1ccc(-c2ccc(C(=O)NS(=O)(=O)c3cccnc3N)c(N3C[C@@H](C)CC3(C)C)n2)c(C)n1 [Compound 1866, N-[(2-amino-3-pyridyl)sulfonyl]-6-(6-methoxy-2-methyl-3-pyridyl)-2-[(4S)-2,2,4-trimethylpyrrolidin-1-yl]pyridine-3-carboxamide] |
| +++ (“+++” means <3 uM) | CC1CN(c2nc(-c3ccc(OC(C)C)nc3)ccc2C(=O)NS(=O)(=O)c2ccn[nH]2)C(C)(C)C1 (stereo not shown) [Compound 1352, 6-(6-isopropoxy-3-pyridyl)-N-(1H-pyrazol-5-ylsulfonyl)-2-(2,2,4-trimethylpyrrolidin-1-yl)pyridine-3-carboxamide] |
| +++ (“+++” means <3 uM) | Cc1cc(C)c(Oc2nc(-c3ccccc3Cl)ccc2C(=O)NS(=O)(=O)c2ccc[nH]c2=O)c(C)c1 [Compound 877, 6-(2-chlorophenyl)-N-[(2-oxo-1H-pyridin-3-yl)sulfonyl]-2-(2,4,6-trimethylphenoxy)pyridine-3-carboxamide] |
| +++ (“+++” means <3 uM) | CC(C)Oc1cc(F)cc(-c2ccc(C(=O)NS(=O)(=O)c3ccn[nH]3)c(N3[C@H](C)CC[C@@H]3C)n2)c1 [Compound 1285, 2-[(2S,5R)-2,5-dimethylpyrrolidin-1-yl]-6-(3-fluoro-5-isopropoxy-phenyl)-N-(1H-pyrazol-5-ylsulfonyl)pyridine-3-carboxamide] |
| ++ (“++” means between 3 uM and 10 uM) | C[C@@H]1CN(c2nc(C3=CCCN(S(=O)(=O)N4CCCCC4)C3)ccc2C(=O)NS(=O)(=O)c2cccc(N)n2)C(C)(C)C1 [Compound 1942, N-[(6-amino-2-pyridyl)sulfonyl]-6-[1-(1-piperidylsulfonyl)-3,6-dihydro-2H-pyridin-5-yl]-2-[(4S)-2,2,4-trimethylpyrrolidin-1-yl]pyridine-3-carboxamide] |
| +++ (“+++” means <3 uM) | CCN(CC)c1cccc(-c2ccc(C(=O)NS(=O)(=O)c3cccnc3N)c(N3C[C@@H](C)CC3(C)C)n2)n1 [Compound 1845, N-[(2-amino-3-pyridyl)sulfonyl]-6-[6-(diethylamino)-2-pyridyl]-2-[(4S)-2,2,4-trimethylpyrrolidin-1-yl]pyridine-3-carboxamide] |
| +++ (“+++” means <3 uM) | COc1cccc(OC)c1-c1ccc(C(=O)NS(=O)(=O)c2cccnc2N)c(N2C[C@@H](C)CC2(C)C)n1 [Compound 1994, N-[(2-amino-3-pyridyl)sulfonyl]-6-(2,6-dimethoxyphenyl)-2-[(4S)-2,2,4-trimethylpyrrolidin-1-yl]pyridine-3-carboxamide] |
| ++ (“++” means between 3 uM and 10 uM) | CC(C)(C)c1cc(C(=O)NS(=O)(=O)c2cccc(N)c2)n(Cc2cccc3cc[nH]c23)n1 [Compound 1256, N-(3-aminophenyl)sulfonyl-5-tert-butyl-2-(1H-indol-7-ylmethyl)pyrazole-3-carboxamide] |
| ++ (“++” means between 3 uM and 10 uM) | Cc1cc(C)c(Cn2nc(C(C)(C)C)cc2C(=O)NS(=O)(=O)c2ccc(CN)cc2)c(C)c1 [Compound 1670, N-[4-(aminomethyl)phenyl]sulfonyl-5-tert-butyl-2-[(2,4,6-trimethylphenyl)methyl]pyrazole-3-carboxamide] |
| +++ (“+++” means <3 uM) | Cc1cc(C)c(Oc2nc(N(C)C)ccc2C(=O)NS(=O)(=O)c2cccc(N)n2)c(C)c1 [Compound 1306, N-[(6-amino-2-pyridyl)sulfonyl]-6-(dimethylamino)-2-(2,4,6-trimethylphenoxy)pyridine-3-carboxamide] |

| SMILES | EC30 |
| --- | --- |
| COc1cccc(S(=O)(=O)NC(=O)c2ccc(-c3cc(F)cc(OCC(C)C)c3)nc2N2CC(C)CC2(C)C)c1 (stereo not shown) [Compound 1171, 6-(3-fluoro-5-isobutoxy-phenyl)-N-(3-methoxyphenyl)sulfonyl-2-(2,2,4-trimethylpyrrolidin-1-yl)pyridine-3-carboxamide] | +++ (“+++” means <3 uM) |
| CC(C)COc1cc(-c2ccc(C(=O)NS(=O)(=O)c3cccc(N)n3)c(N3CC(C)CC3(C)C)n2)ccc1Cl (stereo not shown) [Compound 1021, N-[(6-amino-2-pyridyl)sulfonyl]-6-(4-chloro-3-isobutoxy-phenyl)-2-(2,2,4-trimethylpyrrolidin-1-yl)pyridine-3-carboxamide] | +++ (“+++” means <3 uM) |
| CC(C)COc1cc(F)cc(-c2ccc(C(=O)NS(=O)(=O)c3ccn[nH]3)c(N3C[C@H](C)CC3(C)C)n2)c1 [Compound 1176, 6-(3-fluoro-5-isobutoxy-phenyl)-N-(1H-pyrazol-5-ylsulfonyl)-2-[(4R)-2,2,4-trimethylpyrrolidin-1-yl]pyridine-3-carboxamide] | +++ (“+++” means <3 uM) |
| CC(C)COc1cc(F)cc(-c2ccc(C(=O)NS(=O)(=O)c3cccc(N)n3)c(NCC3(CC(C)(C)O)CC3)n2)c1 [Compound 1723, N-[(6-amino-2-pyridyl)sulfonyl]-6-(3-fluoro-5-isobutoxy-phenyl)-2-[[1-(2-hydroxy-2-methyl-propyl)cyclopropyl]methylamino]pyridine-3-carboxamide] | +++ (“+++” means <3 uM) |
| CC(C)COc1cnn(-c2ccc(C(=O)NS(=O)(=O)c3cccc(N)n3)c(N3C[C@@H](C)CC3(C)C)n2)c1 [Compound 1443, N-[(6-amino-2-pyridyl)sulfonyl]-6-(4-isobutoxypyrazol-1-yl)-2-[(4S)-2,2,4-trimethylpyrrolidin-1-yl]pyridine-3-carboxamide] | +++ (“+++” means <3 uM) |
| CCOC1CCN(c2nc(-c3cc(F)cc(OCC(C)C)c3)ccc2C(=O)NS(=O)(=O)c2ccn[nH]2)CC1 [Compound 1155, 2-(4-ethoxy-1-piperidyl)-6-(3-fluoro-5-isobutoxy-phenyl)-N-(1H-pyrazol-5-ylsulfonyl)pyridine-3-carboxamide] | ++ (“++” means between 3 uM and 10 uM) |
| CC(C)COc1cc(F)cc(-c2ccc(C(=O)NS(=O)(=O)c3cccc(N)n3)c(OCC3(C)CC3)n2)c1 [Compound 1668, N-[(6-amino-2-pyridyl)sulfonyl]-6-(3-fluoro-5-isobutoxy-phenyl)-2-[(1-methylcyclopropyl)methoxy]pyridine-3-carboxamide] | +++ (“+++” means <3 uM) |
| CC(C)COc1cc(F)cc(-c2ccc(C(=O)NS(=O)(=O)c3cccc(N)n3)c(N3CCC3(C)C)n2)c1 [Compound 1928, N-[(6-amino-2-pyridyl)sulfonyl]-2-(2,2-dimethylazetidin-1-yl)-6-(3-fluoro-5-isobutoxy-phenyl)pyridine-3-carboxamide] | ++ (“++” means between 3 uM and 10 uM) |
| CC(C)COc1cc(F)cc(-c2ccc(C(=O)NS(=O)(=O)c3ccn[nH]3)c(N3CCC(C)C3(C)C)n2)c1 (stereo not shown) [Compound 997, 6-(3-fluoro-5-isobutoxy-phenyl)-N-(1H-pyrazol-5-ylsulfonyl)-2-(2,2,3-trimethylpyrrolidin-1-yl)pyridine-3-carboxamide] | ++ (“++” means between 3 uM and 10 uM) |
